Measured values taken from PMC8422652, “Neuromedin U induces an invasive phenotype in CRC cells expressing the NMUR2 receptor” (Journal of Experimental & Clinical Cancer Research : CR, 2021).

Tests used:
[1] = tested on: ERK1/2 in Caco-2 NMU clones; experiment: ERK1/2 kinase activation in Caco-2 NMU clones with inhibitor; format: cell-based, human; conditions: preincubated 1 h with 20 µM inhibitor, immunoblot, n ≥ 4
Experimental: CRC cells were lysed with RIPA buffer (100 mM TRIS-HCl, pH 7.5, 300 mM NaCl, 0.2 % SDS with 1 % IGEPAL CA-630 and the Halt™ Protease Inhibitor Cocktail (Thermo Fisher Scientific)) with subsequent centrifugation (18,000 x g, 4 °C, 20 min). Total protein concentration in lysate was quantified by BCA method (Pierce BCA Protein Assay; Thermo Fisher Scientific). Samples were loaded and separated by SDS-PAGE (Mini-PROTEAN TGX Stain-Free Gels; Bio-Rad Laboratories, CA, USA) and transferred onto nitrocellulose membranes (Bio-Rad Laboratories). NMU protein was detected with rabbit anti-NMU antibody (Genetex, CA, USA), for ERK1/2 kinases analysis mouse anti-ERK1/2 (Santa Cruz Biotechnology, USA) and rabbit anti-pERK1/2 antibodies (Invitrogen) were used. In EVs (extracellular vesicles) purity analysis we used rabbit antibodies anti-GM130, anti-annexin V and anti-flotilin-1 (Cell Signaling Technologies, Danvers, MA, USA). Proteins used as loading controls were detected by mouse anti-β-actin, mouse anti-α-tubulin or rabbit anti-GAPDH antibody (Abcam, Cambridge, GB). We used secondary HRP-conjugated goat anti-mouse (Santa Cruz Biotechnology) or anti-rabbit antibodies (Invitrogen). The signal was detected by chemiluminescence (Thermo Fisher Scientific) with Kodak BioMax Light Film from Eastman Kodak (NY, USA). […]

Caco-2 NMU1 clone = experiment: Cell migration assay (Transwell); format: cell-based, human; conditions: 8 μm Transwell, 3 h, n = 4
Experimental: Migration and invasion assays were performed using an 8 μm pore size Transwell system (Thermo Fischer Scientific). First, 2 × 10^5 cells, were incubated with CellTracker™ Green CMFDA Dye (Invitrogen) for 30 min at 37 °C with following washing step with PBS. Cells resuspended in 200 ul of growth medium without FBS were added inside the insert fixed in the well with 600 ul medium with 10 % FBS. For invasion assays, the chamber was pre-coated with 1 mg/ml Matrigel (Corning). Cells were incubated for 3 h (migration) or 6 h (invasion) at 37 °C. Cells on the apical side of the chamber were gently scraped off using cotton swabs, filters were washed in PBS and pictures were taken under the microscope Nikon Eclipse TE 2000-U. Pictures analysis was done with the use of FIJI image processing package.

Activity of the ERK1/2 signalling pathway in the presence of inhibitor [1]: sensitive
Structure (SMILES): COc1cccc(-c2cc(=O)c3ccccc3o2)c1N [PD98059]
Cell migration in the presence of inhibitor (Caco-2 NMU1 clone): inhibited
